From PubChem BioAssay AID1963984 (Molecular Pharmacology Branch, DTP, NCI, 2024)

Tested on: 233499-124-R-J3-PDC spheroids with HUVEC/MSC, viability
Assay: Anticancer human tumor 233499-124-R-J3-PDC patient-derived colon adenocarcinoma cell line growth inhibition [PI3K]
Conditions: for IC50: curve of first compound; for viability, T/C: stronger effect = lower value
Procedure, shortened: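 Agents were dosed from a top concentration near clinical Cmax (otherwise 10 microM) in half-log decrements, alone or combined with PI3K inhibitors. The spheroids contain tumor cells plus endothelial (HUVEC) and MSC stroma; viability is measured.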

[1] = second compound 0.0316 µM, first compound 0.0316 µM
[2] = second compound 0.0316 µM, first compound 0.1 µM
[3] = second compound 0.0316 µM, first compound 0.316 µM
[4] = second compound 0.0316 µM, first compound 1 µM
[5] = second compound 0.1 µM, first compound 0.0316 µM
[6] = second compound 0.1 µM, first compound 0.1 µM
[7] = second compound 0.1 µM, first compound 0.316 µM
[8] = second compound 0.1 µM, first compound 1 µM
[9] = second compound 0.316 µM, first compound 0.0316 µM
[10] = second compound 0.316 µM, first compound 0.1 µM
[11] = second compound 0.316 µM, first compound 0.316 µM
[12] = second compound 0.316 µM, first compound 1 µM
[13] = second compound 1 µM, first compound 0.0316 µM
[14] = second compound 1 µM, first compound 0.1 µM
[15] = second compound 1 µM, first compound 0.316 µM
[16] = second compound 1 µM, first compound 1 µM
[17] = second compound 3.16 µM, first compound 0.0316 µM
[18] = second compound 3.16 µM, first compound 0.1 µM
[19] = second compound 3.16 µM, first compound 0.316 µM
[20] = second compound 3.16 µM, first compound 1 µM
[21] = second compound 10 µM, first compound 0.0316 µM
[22] = second compound 10 µM, first compound 0.1 µM
[23] = second compound 10 µM, first compound 0.316 µM
[24] = second compound 10 µM, first compound 1 µM
[25] = second compound 0.0316 µM, first compound 0.00316 µM
[26] = second compound 0.0316 µM, first compound 0.01 µM
[27] = second compound 0.1 µM, first compound 0.00316 µM
[28] = second compound 0.1 µM, first compound 0.01 µM
[29] = second compound 0.316 µM, first compound 0.00316 µM
[30] = second compound 0.316 µM, first compound 0.01 µM
[31] = second compound 1 µM, first compound 0.00316 µM
[32] = second compound 1 µM, first compound 0.01 µM
[33] = second compound 3.16 µM, first compound 0.00316 µM
[34] = second compound 3.16 µM, first compound 0.01 µM
[35] = second compound 10 µM, first compound 0.00316 µM
[36] = second compound 10 µM, first compound 0.01 µM
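Note: spheroids exposed to agents for seven days before readout.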
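Throughout, for viability, T/C: percent viability relative to DMSO vehicle control taken as 100%.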

With CC(C)NCC(C(=O)N1CCN(c2ncnc3c2C(C)CC3O)CC1)c1ccc(Cl)cc1 (stereo unspecified) + Cc1nc(NC(=O)N2CCCC2C(N)=O)sc1-c1ccnc(C(C)(C)C(F)(F)F)c1 the IC50 (second compound 0.0316 µM) was over 10 µM, the IC50 (second compound 0.1 µM) was over 10 µM and the IC50 (second compound 0.316 µM) was over 10 µM. It also gave an IC50 (second compound 1 µM) of over 10 µM, an IC50 (second compound 3.16 µM) of 1.19 µM and an IC50 (second compound 10 µM) of under 0.0316 µM. It also gave a viability, T/C [1] of 95.8%, a viability, T/C [2] of 104% and a viability, T/C [3] of 94.6%. It also gave a viability, T/C [4] of 86.5%, a viability, T/C (second compound 0.0316 µM, first compound 3.16 µM) of 94.3% and a viability, T/C (second compound 0.0316 µM, first compound 10 µM) of 56.5%. It also gave a viability, T/C [5] of 91.3%, a viability, T/C [6] of 94.7% and a viability, T/C [7] of 96.4%. The viability, T/C [8] was 83.2%, the viability, T/C (second compound 0.1 µM, first compound 3.16 µM) was 91.6% and the viability, T/C (second compound 0.1 µM, first compound 10 µM) was 51.4%. For the same molecule, the viability, T/C [9] was 87.3%, the viability, T/C [10] was 82.3% and the viability, T/C [11] was 80.7%. The viability, T/C [12] was 76.6%, the viability, T/C (second compound 0.316 µM, first compound 3.16 µM) was 74.1% and the viability, T/C (second compound 0.316 µM, first compound 10 µM) was 72.8%. The viability, T/C [13] was 84.5%, the viability, T/C [14] was 75% and the viability, T/C [15] was 60.7%. For the same molecule, the viability, T/C [16] was 71.7%, the viability, T/C (second compound 1 µM, first compound 3.16 µM) was 73.4% and the viability, T/C (second compound 1 µM, first compound 10 µM) was 62.1%. It also gave a viability, T/C [17] of 63.1%, a viability, T/C [18] of 29.6% and a viability, T/C [19] of 69.9%. The viability, T/C [20] was 59%, the viability, T/C (second compound 3.16 µM, first compound 3.16 µM) was 33.6% and the viability, T/C (second compound 3.16 µM, first compound 10 µM) was 43%. The viability, T/C [21] was 22.1%, the viability, T/C [22] was 19.2% and the viability, T/C [23] was 28.3%. The viability, T/C [24] was 22.6%, the viability, T/C (second compound 10 µM, first compound 3.16 µM) was 31.3% and the viability, T/C (second compound 10 µM, first compound 10 µM) was 23.9%.
CCN1CCN(Cc2ccc(Nc3ncc(F)c(-c4cc(F)c5nc(C)n(C(C)C)c5c4)n3)nc2)CC1 + Cc1nc(NC(=O)N2CCCC2C(N)=O)sc1-c1ccnc(C(C)(C)C(F)(F)F)c1 was tested, and the IC50 (second compound 0.0316 µM) was 0.547 µM, the IC50 (second compound 0.1 µM) was 0.658 µM and the IC50 (second compound 0.316 µM) was 0.164 µM. The IC50 (second compound 1 µM) was 0.036 µM, the IC50 (second compound 3.16 µM) was 0.00726 µM and the IC50 (second compound 10 µM) was under 0.00316 µM. For the same molecule, the viability, T/C [25] was 67.3%, the viability, T/C [26] was 90.7% and the viability, T/C [1] was 74%. For the same molecule, the viability, T/C [2] was 79.7%, the viability, T/C [3] was 59.5% and the viability, T/C [4] was 39.6%. For the same molecule, the viability, T/C [27] was 72.5%, the viability, T/C [28] was 86.7% and the viability, T/C [5] was 67.5%. For the same molecule, the viability, T/C [6] was 52.6%, the viability, T/C [7] was 66.6% and the viability, T/C [8] was 43.4%. The viability, T/C [29] was 94.8%, the viability, T/C [30] was 79.2% and the viability, T/C [9] was 71.9%. For the same molecule, the viability, T/C [10] was 47.6%, the viability, T/C [11] was 49.5% and the viability, T/C [12] was 30.7%. It also gave a viability, T/C [31] of 52.5%, a viability, T/C [32] of 49.5% and a viability, T/C [13] of 49.7%. It also gave a viability, T/C [14] of 49.2%, a viability, T/C [15] of 38.4% and a viability, T/C [16] of 21.3%. The viability, T/C [33] was 55.4%, the viability, T/C [34] was 49.1% and the viability, T/C [17] was 37.7%. For the same molecule, the viability, T/C [18] was 36.6%, the viability, T/C [19] was 25% and the viability, T/C [20] was 24.4%. The viability, T/C [35] was 28.1%, the viability, T/C [36] was 21.9% and the viability, T/C [21] was 27.6%. The viability, T/C [22] was 21.1%, the viability, T/C [23] was 21.3% and the viability, T/C [24] was 20.7%.
Molecule Cn1ncnc1[C@H]1c2n[nH]c(=O)c3cc(F)cc(c23)N[C@@H]1c1ccc(F)cc1 + Cc1nc(NC(=O)N2CCCC2C(N)=O)sc1-c1ccnc(C(C)(C)C(F)(F)F)c1 has an IC50 (second compound 0.0316 µM) of over 0.1 µM, an IC50 (second compound 0.1 µM) of over 0.1 µM and an IC50 (second compound 0.316 µM) of over 0.1 µM. It also gave an IC50 (second compound 1 µM) of over 0.1 µM, an IC50 (second compound 3.16 µM) of 0.00184 µM and an IC50 (second compound 10 µM) of under 0.000316 µM. It also gave a viability, T/C (second compound 0.0316 µM, first compound 0.000316 µM) of 101%, a viability, T/C (second compound 0.0316 µM, first compound 0.001 µM) of 97.2% and a viability, T/C [25] of 95.9%. It also gave a viability, T/C [26] of 109%, a viability, T/C [1] of 81.1% and a viability, T/C [2] of 94.8%. For the same molecule, the viability, T/C (second compound 0.1 µM, first compound 0.000316 µM) was 106%, the viability, T/C (second compound 0.1 µM, first compound 0.001 µM) was 77.2% and the viability, T/C [27] was 85.2%. The viability, T/C [28] was 91.3%, the viability, T/C [5] was 75.6% and the viability, T/C [6] was 90.3%. The viability, T/C (second compound 0.316 µM, first compound 0.000316 µM) was 81.5%, the viability, T/C (second compound 0.316 µM, first compound 0.001 µM) was 89.5% and the viability, T/C [29] was 85.3%. The viability, T/C [30] was 73.8%, the viability, T/C [9] was 58.4% and the viability, T/C [10] was 54.7%. The viability, T/C (second compound 1 µM, first compound 0.000316 µM) was 87.2%, the viability, T/C (second compound 1 µM, first compound 0.001 µM) was 65% and the viability, T/C [31] was 50.3%. The viability, T/C [32] was 57.4%, the viability, T/C [13] was 55.5% and the viability, T/C [14] was 65%. The viability, T/C (second compound 3.16 µM, first compound 0.000316 µM) was 52.6%, the viability, T/C (second compound 3.16 µM, first compound 0.001 µM) was 43.5% and the viability, T/C [33] was 61.8%. The viability, T/C [34] was 41%, the viability, T/C [17] was 49.4% and the viability, T/C [18] was 44.7%. For the same molecule, the viability, T/C (second compound 10 µM, first compound 0.000316 µM) was 28.2%, the viability, T/C (second compound 10 µM, first compound 0.001 µM) was 30.7% and the viability, T/C [35] was 37.6%. For the same molecule, the viability, T/C [36] was 29.1%, the viability, T/C [21] was 22.8% and the viability, T/C [22] was 22.5%.
